According to US9347934B2, “Assays for identifying compounds that modulate bitter taste” (CHROMOCELL CORPORATION, priority 2011, dated 2016):

Experiments:
Type in all cases: cell-based
TAS2R41 = target: T1, TAS2R41 (Homo sapiens, UniProt P59536); assay: Calcium fluorescence functional assay, TAS2R41 cell line; conditions: 20 mM tastant; cell line expressing human TAS2R41 and mouse Gα15
T1 construct: expressed in transfected cells
T1 sequence (P59536 1-307): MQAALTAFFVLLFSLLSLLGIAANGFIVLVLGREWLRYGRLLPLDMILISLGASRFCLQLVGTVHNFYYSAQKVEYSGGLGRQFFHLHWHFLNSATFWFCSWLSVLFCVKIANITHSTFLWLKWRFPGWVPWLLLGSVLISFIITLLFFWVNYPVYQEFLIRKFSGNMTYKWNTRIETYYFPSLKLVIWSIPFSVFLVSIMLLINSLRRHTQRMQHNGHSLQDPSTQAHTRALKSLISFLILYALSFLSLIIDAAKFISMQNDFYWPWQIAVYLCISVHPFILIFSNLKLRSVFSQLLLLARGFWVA
Method: (§1) Accordingly, each cell line of the panel expressed a human bitter taste receptor and mouse Gα15 signaling protein.
(§2) Probenecid was not included in the load solution.
(§3) After dye loading, cell plates were placed in a fluorescent plate reader (e.g., FDSS6000 (Hamamatsu, Japan)) and receptor stimulation was measured by adding 50 ul of 3× concentrated ligand/agonist stock. Fluorescence was monitored continuously for 10 s before agonist addition and for 100-250 s after stimulation with agonist.
(§4) Receptor Activation is defined as follows: % Activation=[((Maximum signal fluorescence−Minimum signal fluorescence)−(Maximum control fluorescence−Minimum control fluorescence))/(Maximum buffer fluorescence−Minimum buffer fluorescence)]*100 Functional Response=[(Maximum signal fluorescence−Minimum signal fluorescence)−(Maximum control fluorescence−Minimum control fluorescence)] • Signal Fluorescence: refers to the change in fluorescence seen with addition of ligand • Control fluorescence: refers to the change in fluorescence seen with addition of buffer (negative control) • Calcium signals from ligand and control were normalized to the basal fluorescence of the cells prior to the stimulation.
(§5) A concentration analysis was performed and EC50 values were calculated by nonlinear regression using the formula: Y=Bottom+(Top-Bottom)/(1+10^((Log EC50-X)*Hill Slope)), X=log of dose or concentration, Y=Response (increasing as X increases), Top=maximum signal, Bottom=minimum signal.

TAS2R44 = target: T2, TAS2R44 (Homo sapiens, UniProt P59538); assay: Calcium fluorescence functional assay, TAS2R44 cell line; conditions: for TAS2R44 bitter taste receptor activity (changes in intracellular calcium): 20 mM tastant, cell line expressing human TAS2R44 and mouse Gα15
T2 construct: expressed in transfected cells
T2 sequence (P59538 1-309): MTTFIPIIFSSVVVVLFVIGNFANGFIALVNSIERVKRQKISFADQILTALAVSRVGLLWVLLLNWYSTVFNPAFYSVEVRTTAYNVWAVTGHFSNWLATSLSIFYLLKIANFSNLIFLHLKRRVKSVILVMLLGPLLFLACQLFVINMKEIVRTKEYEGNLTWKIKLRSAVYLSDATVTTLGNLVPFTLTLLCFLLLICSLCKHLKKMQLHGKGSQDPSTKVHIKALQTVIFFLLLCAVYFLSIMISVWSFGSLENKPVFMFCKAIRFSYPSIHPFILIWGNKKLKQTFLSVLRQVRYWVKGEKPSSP
Method: as §1, §2, §3, §4, §5

TAS2R39 = target: T3, TAS2R39 (Homo sapiens, UniProt P59534); assay: Calcium fluorescence functional assay, TAS2R39 cell line; conditions: 20 mM tastant; cell line expressing human TAS2R39 and mouse Gα15
T3 construct: expressed in transfected cells
T3 sequence (P59534 1-338): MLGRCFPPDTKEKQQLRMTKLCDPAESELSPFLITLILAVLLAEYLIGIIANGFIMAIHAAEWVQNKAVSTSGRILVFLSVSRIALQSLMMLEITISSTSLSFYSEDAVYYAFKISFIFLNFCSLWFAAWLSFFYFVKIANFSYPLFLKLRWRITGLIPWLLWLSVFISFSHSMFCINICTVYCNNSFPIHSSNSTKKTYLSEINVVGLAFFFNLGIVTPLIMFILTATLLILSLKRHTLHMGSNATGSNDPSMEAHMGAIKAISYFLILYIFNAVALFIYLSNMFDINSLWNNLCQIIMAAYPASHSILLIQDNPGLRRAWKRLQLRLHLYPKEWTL
Method: as §1, §2, §3, §4, §5

TAS2R9 = target: T4, TAS2R9 (Homo sapiens, UniProt Q9NYW1); assay: Calcium fluorescence functional assay, TAS2R9 cell line; conditions: for TAS2R9 bitter taste receptor activity (changes in intracellular calcium): 20 mM tastant, cell line expressing human TAS2R9 and mouse Gα15
T4 construct: expressed in transfected cells
T4 sequence (Q9NYW1 1-312): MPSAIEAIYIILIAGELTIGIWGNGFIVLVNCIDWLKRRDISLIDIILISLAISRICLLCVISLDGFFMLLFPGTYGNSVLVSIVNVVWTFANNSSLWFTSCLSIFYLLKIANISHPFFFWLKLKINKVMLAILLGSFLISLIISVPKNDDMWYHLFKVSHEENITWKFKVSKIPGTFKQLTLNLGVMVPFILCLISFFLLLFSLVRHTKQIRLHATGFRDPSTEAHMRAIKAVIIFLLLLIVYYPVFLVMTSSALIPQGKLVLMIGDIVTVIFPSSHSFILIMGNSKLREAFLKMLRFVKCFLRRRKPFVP
Method: as §1, §2, §3, §4, §5

TAS2R38 = target: T5, TAS2R38 (Homo sapiens, UniProt P59533); assay: Calcium fluorescence functional assay, TAS2R38 cell line; conditions: 20 mM tastant; cell line expressing human TAS2R38 and mouse Gα15
T5 construct: expressed in transfected cells
T5 sequence (P59533 1-333): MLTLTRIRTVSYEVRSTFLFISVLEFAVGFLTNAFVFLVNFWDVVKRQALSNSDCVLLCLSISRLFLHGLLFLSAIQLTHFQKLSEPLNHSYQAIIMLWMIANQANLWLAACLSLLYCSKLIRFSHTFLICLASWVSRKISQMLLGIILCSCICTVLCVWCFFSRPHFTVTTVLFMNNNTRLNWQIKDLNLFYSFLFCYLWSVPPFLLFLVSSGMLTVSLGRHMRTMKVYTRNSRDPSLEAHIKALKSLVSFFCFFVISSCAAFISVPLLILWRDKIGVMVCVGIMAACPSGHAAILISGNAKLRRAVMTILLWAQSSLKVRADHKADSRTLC
Method: as §1, §2, §3, §4, §5

TAS2R13 = target: T6, TAS2R13 (Homo sapiens, UniProt Q9NYV9); assay: Calcium fluorescence functional assay, TAS2R13 cell line; conditions: for TAS2R13 bitter taste receptor activity (changes in intracellular calcium): 20 mM tastant, cell line expressing human TAS2R13 and mouse Gα15
T6 construct: expressed in transfected cells
T6 sequence (Q9NYV9 1-303): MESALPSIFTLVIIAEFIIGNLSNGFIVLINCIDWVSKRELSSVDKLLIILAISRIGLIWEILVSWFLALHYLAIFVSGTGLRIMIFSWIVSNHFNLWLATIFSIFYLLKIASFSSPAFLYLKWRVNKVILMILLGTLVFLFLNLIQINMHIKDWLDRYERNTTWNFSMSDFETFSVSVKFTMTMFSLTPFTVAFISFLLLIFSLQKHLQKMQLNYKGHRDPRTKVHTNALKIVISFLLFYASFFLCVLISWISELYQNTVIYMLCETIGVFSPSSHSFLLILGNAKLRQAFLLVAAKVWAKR
Method: as §1, §2, §3, §4, §5

| Structure (SMILES) | TAS2R41 bitter taste receptor activity (changes in intracellular calcium) (TAS2R41) | TAS2R44 bitter taste receptor activity (changes in intracellular calcium) (TAS2R44) | TAS2R39 bitter taste receptor activity (changes in intracellular calcium) (TAS2R39) | TAS2R9 bitter taste receptor activity (changes in intracellular calcium) (TAS2R9) | TAS2R38 bitter taste receptor activity (changes in intracellular calcium) (TAS2R38) | TAS2R13 bitter taste receptor activity (changes in intracellular calcium) (TAS2R13) | EC50 (TAS2R44; increasing concentrations of KCl, TAS2R44 cell line (FIG. 3), read-out: EC50 value, activation of TAS2R44) [mM] | EC50 (TAS2R9; increasing concentrations of KCl, TAS2R9 cell line (FIG. 3), read-out: EC50 value, activation of TAS2R9) [mM] | EC50 (TAS2R13; increasing concentrations of KCl, TAS2R13 cell line (FIG. 3), read-out: EC50 value, activation of TAS2R13) [mM] |
| --- | --- | --- | --- | --- | --- | --- | --- | --- | --- |
| CC1=CC(=O)NS(=O)(=O)O1 [Acesulfame K] | did not induce | induced | did not induce | induced | did not induce | induced |  |  |  |
| [Cl-].[K+] [KCl, potassium chloride] | did not induce | induced | did not induce | induced | did not induce | induced | 5 to 15 | 5 to 15 | 5 to 15 |
| CC(O)C(=O)[O-].[K+] (stereo not drawn) [Potassium lactate, potassium lactate] | did not induce | induced | did not induce | induced | did not induce | induced |  |  |  |
